In patent US7538129B2, “Diazonamide A analog” (Board of Regents, The University of Texas System, priority 2005, dated 2009):
“And” between values parts separate entries of the source, which are not always exact repeats. Equal entries are not always repeated. “Also recorded” adds a separate entry of the source.

Tests used:
[1] = pharmacokinetics, intratumoral concentration after intravenous injection; format: in vivo; details: mice with MDA-MB-435 xenograft tumors
Protocol: Compound J was injected intravenously into mice containing xenograft tumors grown from MDA-MB-435 breast cancer cells. The intratumoral concentration of Compound J was measured as a function of time.

PC-3 xenografts = assay: growth inhibition of PC-3 xenografts; format: in vivo, mice; details: 20 mg/kg; for inhibition of growth of PC-3 xenografts: FIG. 4B; for % Max T/C / Log10 Tumor Cell Kill: PC3 (prostate), IV
Protocol: In FIG. 4B, the squares are the control, the dark circles are the data-points for Compound J and the light diamonds are data-points for paclitaxel.
The details of the protocol for Examples 19 and 20 are as follows:
• PC3 prostrate tumor cells and HCT116 colon tumor cells (acquired from the tumor repository Division of Cancer Treatment and Diagnosis (DCTD) of the NCI • Complete RPMI Media • RPMI (Cat# 11875-085, Invitrogen) • 10% Heat-inactivated (30′ 56° C.) Fetal Bovine Serum (Cat# 100-106, Gemini Bio-Products • 2 mM L-glutamine (Cat# 25030-081, Invitrogen) • 0.1 mM MEM Non-Essential Amino Acids Solution (Cat#11140-050, Invitrogen) • 10 U/ml Penicillin/10 μg/ml Streptomycin (Cat#15140-122, Invitrogen) • 1 mM Sodium Pyruvate (Cat#l 1360-070) • Trypsin-EDTA (Cat#25300-054, Invitrogen) • Ca^2+/Mg^2+-free Phosphate Buffered Saline, 5% dextrose in water • Cell Culture Dish 150 mm×25 mm (Cat# 430599, Coming, Inc.) • 10 and 25 ml pipets, standard pipet-aid, p200 and p1000 pipette tips and standard pipetmen • Athymic NCr-nu/nu nude mice at 6-12 weeks of age, either sex (Strain code: 01B74, NCI Frederick Animal Production Program—suppliers include Charles River Labs and Taconic Farms). Female mice of approximately 7 weeks of age were utilized for existing experiments. • Standard 1 cc tuberculin syringe, 30G½ and 25G⅝ needles (Becton Dickinson) • Falcon 5 ml tubes (Cat#352054) • 50 and 15 ml disposable plastic conical tubes (Falcon or similar vendor) • Trypan Blue Solution (0.4%) (Cat#T8154, Sigma) • Hausser phase contrast hemacytometer (Cat# 02-671-54, Fisher) • Ice bucket • Balance for weighing mice (accurate to 0.2 g) • Vernier calipers • Vivarium facility free from known pathogens (nude mice should be housed in isolation from conventional mice if possible—separate rooms or micro-isolator cages equipped with individual air flow; all animal housing, bedding, water should be autoclaved prior to use; standard irradiated mouse chow should be used; animals should be changed out of cages within laminar flow hood; investigators handling mice should be suitably garbed—disposable gown, bonnet, booties, gloves, mask) • AB-5 (Compound J) compound • Ethyl alcohol, 200 proof (Aaper, MFD 041205) • Cremaphor (Cat# C5135, Sigma) • Paclitaxel (Cat#ANP0010, Polymed Therapeutics) Procedure: • 1) Rapidly thaw PC3 or HCT116 cells (if necessary) in 37° C. water bath. Transfer contents to 9ml complete RPMI media. Spin 5′ at 1200 rpm (240 Xg). Discard media and resuspend pellet in 8 ml complete RPMI media. Plate in 100 mm×25 mm cell culture dish in 5% CO2, 37° C. humidified incubator. • 2) Allow to grow for 5-10 days, splitting (aspirate media, wash with 3-5 ml PBS, add 1 ml trypsin-EDTA, incubate 3-5′ at 37° C., add media to desired volume and transfer to multiple plates) 1:8 to 1:10 every 3-4 days as necessary to allow cells to enter phase of logarithmic growth. • 3) When cells are growing well, begin to expand to 150 mm×25 mm dishes. We use 20 ml of media in a 150 mm dish and use 2 ml of trypsin for splitting. When nearly confluent, there should be 2×10^7 cells/150 mm dish. • 4) Plan ahead to time arrival of nu/nu mice such that they can acclimate to animal facility for 1 week prior to injection of tumor cells. […] Plan to inject 10 million cells/mouse and allow for loss of cells/volume during injection process. That is, if 30 mice are to be injected, plan to harvest cells sufficient for at least 35 injections—35×10 million cells=3.5×10^8 cells. In the existing HCT116 experiment, 7.5×10^6 cells were injected per mouse. Five mice per group were utilized for AB-5 treatment and four mice per group were utilized for the control and paclitaxel treatments. In the existing PC3 experiment, 10^7 cells were injected. Six mice per group were utilized for the control treatment and five mice per group were utilized for the AB-5 and paclitaxel treatments. […]

[2] = test system: PTX10 ovarian tumor cell line; assay: survival of PTX10 ovarian tumor cell line; format: cell-based; details: PTX10, FIG. 2
Description: Additional experiments testing the effect of Compound J and paclitaxel on the survival of PTX10ovarian tumor cell line are shown in FIG. 2. […] In FIG. 2, the circles represent Compound J and the diamonds represent paclitaxel.

MDA-MB-231 = assay: growth inhibition (GI50) of tumor cell lines; format: cell-based; details: MDA-MB-231, FIG. 1
Protocol: (§1) A number of tumor cell lines representing breast, lung, colon, ovarian and prostate cancer as well as melanoma were assayed under standard growth conditions in presence of varying amounts of diazonamide A, a hydroxylated form of Compound J, Compound J, paclitaxel and vinblastine. The results are graphed as the concentration that diminishes growth by a factor of two (GI50) in FIG. 1.

[3] = test system: melanoma tumor cell lines; assay: growth inhibition (GI50) of tumor cell lines; format: cell-based; details: FIG. 1
Protocol: as §1

[4] = test system: MDA-MB-435 (breast) xenografts; assay: growth inhibition of MDA-MB-435 xenografts; format: in vivo, mice; details: 20 mg/kg, IP
SKMEL-2 = assay: growth inhibition (GI50) of tumor cell lines; format: cell-based; details: SKMEL-2, FIG. 1
Protocol: as §1

[5] = test system: ovarian cell line IGR-OV1; assay: growth inhibition (GI50) of tumor cell lines; format: cell-based; details: IGR-OV1, FIG. 1
Protocol: as §1

Structure (SMILES)	area under the curve [1] [ng·min/mL]	half-life ([1]; mouse, tumor, read-out: terminal half-life) [h]	Vd ([1]; mouse, tumor, read-out: volume of distribution) [L/kg]	inhibition of growth of PC-3 xenografts (PC-3 xenografts)	% Max T/C (PC-3 xenografts) [%]	Log10 Tumor Cell Kill (PC-3 xenografts)	percentage of cells surviving (survival fraction against concentration) [2]	GI50 (concentration that diminishes growth by a factor of two) (MDA-MB-231)	GI50 (concentration that diminishes growth by a factor of two) [3]	#Tumor Free (day) [4]	% Max T/C [4]	GI50 (concentration that diminishes growth by a factor of two) (SKMEL-2)	GI50 (concentration that diminishes growth by a factor of two) [5]
CC(C)[C@H](O)C(=O)N[C@H]1Cc2ccc3c(c2)[C@]24C5=C(N=C(O5)[C@H](C(C)C)NC1=O)c1ncc(o1)-c1c[nH]c5cccc(c15)-c1cccc2c1NC4O3 (stereo in doubt) [Compound J]	3010224	4.96	2.9	comparable to paclitaxel; also recorded: significantly inhibited tumor growth	0.3	3.4	more effective than paclitaxel	more effective than the remaining drugs	less effective than the remaining drugs	0/6	6.8% and 3.1%		
CC(=O)O[C@H]1C(=O)[C@@]2(C)[C@H]([C@H](OC(=O)c3ccccc3)[C@]3(O)C[C@H](OC(=O)[C@H](O)[C@@H](NC(=O)c4ccccc4)c4ccccc4)C(C)=C1C3(C)C)[C@]1(OC(C)=O)CO[C@@H]1C[C@@H]2O [paclitaxel, reference compound]				significantly inhibited tumor growth	0	3.4						significantly less effective than the remaining four drugs	significantly less effective than the remaining four drugs
